Assay results: patent US11834420B2, “Preparation method of pyrimidinylthio-benzoate oxime ester compound and application thereof as herbicide” (CHANGZHOU UNIVERSITY, priority 2019, dated 2023)

Assays:
[1] = system: Setaria viridis; assay: Pot experiment, indoor herbicidal activity (stem and leaf spray); format: in vivo; settings: fresh weight inhibition rate, 45 g a.i/hm^2, stem and leaf spray, 21st day after applying
Method: (§1) 20 mg of the pyrimidinylthio-benzoate compound active pharmaceutical ingredients (APIs) is weighed with a 1/10,000 analytical balance, dissolved with acetone (or DMF or DMSO), and diluted with a 0.1% Tween-80 aqueous solution to a concentration of 45 g a.i/hm^2.
(§2) The test soil is quantitatively filled to 4/5 of the pot, and subirrigation method is adopted at a bottom of the pot to moisten the soil. The test weed seeds are sown on the soil surface and cultivated in a greenhouse. When the gramineous weeds grow to 3-4 leaf stage and broadleaf weeds grow to 4-6 leaf stage, a stem and leaf spray method is used for treatment. On the 21st day after applying the herbicide, the above-ground part is taken to weigh the fresh weight, and the fresh weight inhibition rate is calculated according to the formula. Fresh weight inhibition rate (%)=(control fresh weight−treated fresh weight)/control fresh weight×100%
(§3) Pyrithiobac-sodium is used as a positive control. The herbicidal activity of the target compound is screened. The dosage refers to the applied dosage of the pyrithiobac-sodium in the cotton field, i.e., 45 g a.i/hm^2, and the stem and leaf spray method is used for treatment.

[2] = system: Eleusine indica; assay: as above; format: in vivo; settings: fresh weight inhibition rate, 45 g a.i/hm^2, stem and leaf spray, 21st day after applying
Method: as §1, §2, §3

[3] = system: Amaranthus retroflexus; assay: as above; format: in vivo; settings: fresh weight inhibition rate, 45 g a.i/hm^2, stem and leaf spray, 21st day after applying
Method: as §1, §2, §3

[4] = system: Echinochloa crusgalli; assay: as above; format: in vivo; settings: fresh weight inhibition rate, 45 g a.i/hm^2, stem and leaf spray, 21st day after applying
Method: as §1, §2, §3

[5] = system: Portulaca oleracea; assay: as above; format: in vivo; settings: fresh weight inhibition rate, 45 g a.i/hm^2, stem and leaf spray, 21st day after applying
Method: as §1, §2, §3

[6] = system: Chenopodium album; assay: as above; format: in vivo; settings: fresh weight inhibition rate, 45 g a.i/hm^2, stem and leaf spray, 21st day after applying
Method: as §1, §2, §3

Compound	Inhibition rate (%) Setaria viridis [1]	Inhibition rate (%) Eleusine indica [2]	Inhibition rate (%) Amaranthus retroflexus [3]	Inhibition rate (%) Echinochloa crusgalli [4]	Inhibition rate (%) Portulaca oleracea [5]	Inhibition rate (%) Chenopodium album [6]	melting point
COc1ccc(/C(C)=N/OC(=O)c2c(Cl)cccc2Sc2nc(OC)cc(OC)n2)c(OC)c1 [M, (E)-1-(2,4-dimethoxyphenyl)ethan-1-one O-(2-chloro-6-((4,6-dimethoxypyrimidin-2-yl)thio)benzoyl)oxime]	77.2%	85.6%	100%	100%	90.9%	100%	125 to 129 °C
COc1cc(OC)nc(Sc2cccc(Cl)c2C(=O)O/N=C(\C)c2ccc(F)cc2)n1 [L, (E)-1-(4-fluorophenyl)ethan-1-one O-(2-chloro-6((4,6-dimethoxypyrimidin-2-yl)thio)benzoyl) oxime]	75.4%	87.0%	100%	100%	90.5%	100%	102 to 105 °C
COc1cc(OC)nc(Sc2cccc(Cl)c2C(=O)O/N=C(\C)c2ccc(C)cc2)n1 [C, (E)-1-(p-tolyl)ethan-1-one O-(2-chloro-6-((4,6-dimethoxypyrimidin-2-yl)thio)benzoyl) oxime]	39.3%	52.5%	90.4%	37.5%	40.9%	95.8%	115 to 119 °C
COc1cc(OC)nc(Sc2cccc(Cl)c2C(=O)O/N=C(\C)c2ccc([N+](=O)[O-])cc2)n1 [I, (E)-1-(4-nitrophenyl)ethan-1-one O-(2-chloro-6-((4,6-dimethoxypyrimidin-2-yl)thio)benzoyl)oxime]	75.1%	89.7%	100%	95.7%	94.5%	96.8%	153 to 157 °C
COc1cc(OC)nc(Sc2cccc(Cl)c2C(=O)O/N=C(\C)c2cccc(C)c2)n1 [B, (E)-1-(m-tolyl)ethan-1-one O-(2-chloro-6-((4,6-dimethoxypyrimidin-2-yl)thio)benzoyl) oxime]	53.0%	53.0%	93.5%	30.3%	60.7%	87.0%	84 to 88 °C
COc1cc(OC)nc(Sc2cccc(Cl)c2C(=O)O/N=C(\C)c2cccc(C(F)(F)F)c2)n1 [E, (E)-1-(3-(trifluoromethyl)phenyl)ethan-1-one O-(2-chloro-6-((4,6-dimethoxypyrimidin-2-yl)thio)benzoyl)oxime]	27.8%	37.0%	82.4%	79.5%	64.6%	82.4%	81 to 86 °C
COc1cc(OC)nc(Sc2cccc(Cl)c2C(=O)O/N=C(\C)c2cccc([N+](=O)[O-])c2)n1 [H, (E)-1-(3-nitrophenyl)ethan-1-one O-(2-chloro-6-((4,6-dimethoxypyrimidin-2-yl)thio)benzoyl)oxime]	64.6%	88.5%	100%	87.7%	85.9%	90.4%	155 to 159 °C
COc1cc(OC)nc(Sc2cccc(Cl)c2C(=O)O/N=C(\C)c2ccccc2C(F)(F)F)n1 [D, (E)-1-(2-(trifluoromethyl)phenyl)ethan-1-one O-(2-chloro-6-((4,6-dimethoxypyrimidin-2-yl)thio)benzoyl)oxime]	33.7%	52.4%	80.2%	78.3%	69.2%	89.6%	82 to 85 °C
COc1cc(OC)nc(Sc2cccc(Cl)c2C(=O)O/N=C(\C)c2cccc(F)c2)n1 [K, (E)-1-(3-fluorophenyl)ethan-1-one O-(2-chloro-6-((4,6-dimethoxypyrimidin-2-yl)thio)benzoyl) oxime]	72.9%	92.0%	100%	100%	93.3%	100%	103 to 107 °C
COc1cc(OC)nc(Sc2cccc(Cl)c2C(=O)O/N=C(\C)c2ccccc2[N+](=O)[O-])n1 [G, (E)-1-(2-nitrophenyl)ethan-1-one O-(2-chloro-6-((4,6-dimethoxypyrimidin-2-yl)thio)benzoyl)oxime]	60.3%	84.6%	100%	90.4%	89.4%	95.7%	130 to 134 °C
COc1cc(OC)nc(Sc2cccc(Cl)c2C(=O)O/N=C(\C)c2ccccc2C)n1 [A, (E)-1-(o-tolyl)ethan-1-one O-(2-chloro-6-((4,6-dimethoxypyrimidin-2-yl)thio)benzoyl) oxime]	31.3%	67.6%	92.0%	35.6%	35.4%	100%	108 to 111 °C
COc1cc(OC)nc(Sc2cccc(Cl)c2C(=O)O/N=C(\C)c2ccccc2F)n1 [J, (E)-1-(2-fluorophenyl)ethan-1-one O-(2-chloro-6-((4,6-dimethoxypyrimidin-2-yl)thio)benzoyl) oxime]	77.2%	90.3%	100%	100%	90.2%	98.4%	87 to 91 °C
COc1cc(OC)nc(Sc2cccc(Cl)c2C(=O)O/N=C(\C)c2ccc(C(F)(F)F)cc2)n1 [F, (E)-1-(4-(trifluoromethyl)phenyl)ethan-1-one O-(2-chloro-6-((4,6-dimethoxypyrimidin-2-yl)thio)benzoyl)oxime]	56.0%	80.7%	97.5%	100%	84.4%	85.1%	86 to 90 °C
COc1cc(OC)nc(Sc2cccc(Cl)c2C(=O)O)n1 [Pyrithiobac-sodium, reference compound]	65.4%	44.7%	95.2%	60.6%	96.8%	93.9%	
